Measurements from paper PMC10806767 (JACS Au, 2023).
Ends that are not written are not given here.

What was measured:
[1] = tested on: 4T1-luc mouse mammary tumor; assay: In vivo antitumor efficacy and biosafety study, 4T1-luc tumor-bearing mice; settings: 8 mg/kg, peritumoral injection every other day, 19 days
[2] = tested on: breast cancer cells; assay: Wound healing assay; assay type: cell-based; settings: 36 h, compared with the control group
[3] = target: T1, recombinant protein His-SND1 (16-339) (UniProt Q7KZF4 16-339); assay: fluorescence polarisation
T1 sequence (looked up): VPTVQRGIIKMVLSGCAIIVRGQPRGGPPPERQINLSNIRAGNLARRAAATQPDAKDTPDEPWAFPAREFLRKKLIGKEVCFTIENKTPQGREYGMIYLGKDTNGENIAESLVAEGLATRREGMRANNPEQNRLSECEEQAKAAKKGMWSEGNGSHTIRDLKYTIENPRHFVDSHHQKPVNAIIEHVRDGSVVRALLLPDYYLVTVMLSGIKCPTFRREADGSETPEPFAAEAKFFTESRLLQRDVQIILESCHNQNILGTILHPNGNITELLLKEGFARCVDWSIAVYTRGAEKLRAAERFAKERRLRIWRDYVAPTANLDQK

C[S+]1CC[C@@H](C(=O)N[C@@H](CCC(=O)O)C(=O)N[C@@H](Cc2c[nH]c3ccccc23)C(=O)O)NC(=O)[C@H](CCCNC(=N)N)NC(=O)[C@H](Cc2c[nH]cn2)NC(=O)[C@H](CCC(=O)O)NC(=O)[C@@H](NC(=O)[C@H](CCCNC(=N)N)NC(=O)[C@H](CCCNC(=N)N)NC(=O)OCC2c3ccccc3-c3ccccc32)CC[S+](C)Cc2cccc(c2)C1 (stereo partly drawn) [Wpc]
tumor growth suppression (in words) [1]: failed to suppress the tumor growth
tumor migration suppression [2]: little effect

DWNEPAEEWGNWVDE (peptide, UniProt Q86UE4 393-407, looked up, also: FITC label (position not given here)) [MS2D-E]
Kd [3]: ~34 nM
